In patent publication US6855730B2, “3-methylidenyl-2-indolinone modulators of protein kinase” (Sugen, Inc., priority 1998, dated 2005) one finds IC50 data, which are given here for 38 compounds.

Molecules are shown by their SMILES. Counter-ions that a name gives are not always drawn. A value given as a limit tells only on which side of the number the result lay.

T1 sequence (P09619 33-1106): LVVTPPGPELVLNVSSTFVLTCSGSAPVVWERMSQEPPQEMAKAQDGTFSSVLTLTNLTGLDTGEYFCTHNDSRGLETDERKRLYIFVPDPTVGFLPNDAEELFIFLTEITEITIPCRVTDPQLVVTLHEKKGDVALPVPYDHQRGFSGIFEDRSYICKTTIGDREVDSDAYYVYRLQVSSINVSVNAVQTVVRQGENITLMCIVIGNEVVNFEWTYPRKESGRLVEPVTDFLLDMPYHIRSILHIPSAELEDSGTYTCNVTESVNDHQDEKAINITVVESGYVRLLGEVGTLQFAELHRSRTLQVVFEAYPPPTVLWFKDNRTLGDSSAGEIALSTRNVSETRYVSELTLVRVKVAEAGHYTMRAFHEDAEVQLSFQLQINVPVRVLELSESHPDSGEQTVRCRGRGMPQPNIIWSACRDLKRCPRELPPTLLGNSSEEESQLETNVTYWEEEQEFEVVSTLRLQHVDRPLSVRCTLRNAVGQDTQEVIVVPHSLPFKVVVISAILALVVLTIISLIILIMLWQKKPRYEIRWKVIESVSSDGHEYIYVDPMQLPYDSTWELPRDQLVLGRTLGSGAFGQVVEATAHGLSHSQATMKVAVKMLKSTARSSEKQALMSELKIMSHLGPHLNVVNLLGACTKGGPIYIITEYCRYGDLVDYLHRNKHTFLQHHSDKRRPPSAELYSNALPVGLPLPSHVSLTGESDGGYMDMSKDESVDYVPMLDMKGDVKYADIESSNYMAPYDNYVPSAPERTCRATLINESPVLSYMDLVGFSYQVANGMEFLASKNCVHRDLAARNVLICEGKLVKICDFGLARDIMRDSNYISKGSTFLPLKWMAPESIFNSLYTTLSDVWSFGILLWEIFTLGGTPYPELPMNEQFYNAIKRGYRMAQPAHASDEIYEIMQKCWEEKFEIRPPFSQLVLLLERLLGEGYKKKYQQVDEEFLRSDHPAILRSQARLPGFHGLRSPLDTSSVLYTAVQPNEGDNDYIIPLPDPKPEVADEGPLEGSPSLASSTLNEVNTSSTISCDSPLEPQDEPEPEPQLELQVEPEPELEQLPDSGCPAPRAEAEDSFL

The test has as its target T1, PDGFR-β (Homo sapiens, UniProt P09619).
T1 construct: host or cells: NIH 3T3
Put plainly: Biochemical PDGFR assay (ELISA, PDGFR-β expressing NIH 3T3 cell lysate). The settings on record: read-out: bio PDGF IC50. The essentials:
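PDGFR-β from NIH 3T3 cell lysate captured on anti-PDGFR (28D4C10)-coated plates; compound preincubated 30 min, then 20 μM ATP kinase reaction 30 min at room temperature, stopped with EDTA. Phosphotyrosine detected by anti-phosphotyrosine antibody, peroxidase conjugate and ABTS/H2O2, read at 410 nm.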
Regarding `COc1cc(/C=C2/C(=O)Nc3ccccc32)c(-c2ccc3ccccc3c2)cc1OC` [Example 62, 3-(4,5-Dimethoxy-2-naphthalen-2-ylbenzylidene)-1,3-dihydroindol-2-one], the IC50 is more than 100 µM.

Take `CC(C)c1cc(/C=C2/C(=O)Nc3ccc(Br)cc32)cc(C(C)C)c1OCCN1CCOCC1` [Example 57, 5-Bromo-3-[3,5-diisopropyl-4-(2-morpholin-4-ylethoxy)benzylidene]-1,3-dihydroindol-2-one]: the half-inhibitory concentration (IC50) is more than 100 µM.

For the compound `CNS(=O)(=O)c1ccc2c(c1)C(=Cc1[nH]c3ccccc3c1C)C(=O)N2` (racemic) [Example 154, 3-(3-Methyl-1H-indol-2-ylmethylene)-2-oxo-2,3-dihydro-1H-indole-5-sulfonic acid methylamide], the IC50 was more than 100 µM.

On to `COc1cccc(-c2cc(OC)c(OC)cc2/C=C2/C(=O)Nc3ccc(Cl)cc32)c1` [Example 61, 5-Chloro-3-(4,5-3′-Trimethoxybiphenyl-2-ylmethylene)-1,3-dihydroindol-2-one], for which the concentration for half-maximal inhibition (IC50) is more than 100 µM.

For `CC(=O)Nc1ccc2c(c1)NC(=O)/C2=C/c1ccc(OCCN2CCOCC2)c(C2CCCCC2)c1` [Example 16, N-{3-[3-Cyclohexyl-4-(2-morpholin-4-ylethoxy)-benzylidene]-2-oxo-2,3-dihydro-1H-indol-6-yl}-acetamide], the IC50 was more than 100 µM.

For `COc1ccc(/C=C2/C(=O)Nc3ccc(Cl)cc32)cc1-c1cccnc1` [Example 60], the half-inhibitory concentration (IC50) is 24.5 µM.

As for `COc1cc(/C=C2/C(=O)Nc3ccccc32)c(-c2cccs2)cc1OC` [Example 39, 3-(4,5-Dimethoxy-2-thiophen-2-ylbenzylidene)-1,3-dihydroindol-2-one], the IC50 is more than 100 µM.

For `COc1ccc(/C=C2/C(=O)Nc3cc(NC(C)=O)ccc32)cc1-c1ccsc1` [Example 18, N-[3-(4-Methoxy-3-thiophene-3-ylbenzylidene)-2-oxo-2,3-dihydro-1H-indol-6-yl]-acetamide], the IC50 stood at 86.9 µM.

On to `COc1ccc2c(c1)NC(=O)/C2=C/c1ccc(OC)c(-c2ccsc2)c1` [Example 64, 6-Methoxy-3-(4-methoxy-3-thiophen-3-ylbenzylidene)-1,3-dihydroindol-2-one], for which the IC50 is more than 100 µM.

For `COc1ccc(/C=C2/C(=O)Nc3ccc(F)cc32)cc1C1CCCC1` [Example 11, 3-(3-Cyclopentyl-4-methoxybenzylidene)-5-fluoro-1,3-dihydroindol-2-one], the IC50 was more than 100 µM.

With `CC(=O)Nc1ccc2c(c1)NC(=O)/C2=C/c1ccc(OCCN2CCOCC2)c(-c2ccsc2)c1` [Example 50, N-{3-[4-(2-Morpholin-4-ylethoxy)-3-thiophen-3-ylbenzylidene]-2-oxo-2,3-dihydro-1H-indol-6-yl}-acetamide], the IC50 was more than 100 µM.

Consider `COc1ccc(C=C2C(=O)Nc3ccccc32)cc1-c1cccc(NC(C)=O)c1` [Example 29, N-[2′-Methoxy-5′-(2-oxo-1,2-dihydroindol-3-ylidenemethyl)-biphenyl-3-yl]-acetamide], for which the IC50 is more than 100 µM.

Turning to `CC(=O)Nc1ccc2c(c1)NC(=O)/C2=C\c1ccc2c(c1)CCC(C)(C)O2` [Example 33, N-[3-(2,2-Dimethylchroman-6-ylmethylene)-2-oxo-2,3-dihydro-1H-indol-6-yl]-acetamide], the half-inhibitory concentration (IC50) is more than 100 µM.

As for `COc1ccc(/C=C2/C(=O)Nc3ccc(Br)cc32)cc1-c1ccccc1` [Example 13, 5-Bromo-3-(6-methoxybiphenyl-3-ylmethylene)-1,3-dihydroindol-2-one], the IC50 was more than 100 µM.

As to `COc1ccc(C=C2C(=O)Nc3cc(NC(C)=O)ccc32)cc1-c1cccc(NC(C)=O)c1` (mixture of isomers) [Example 63, N-[3-(3′-Acetylamino-6-methoxybiphenyl-3-ylmethylene)-2-oxo-2,3-dihydro-1H-indol-6-yl]-acetamide], the IC50 was more than 100 µM.

Consider `COc1ccc(/C=C2/C(=O)Nc3ccc(F)cc32)cc1C(C)C` [Example 44, 5-Fluoro-3-(3-isopropyl-4-methoxybenzylidene)-1,3-dihydroindol-2-one], for which the IC50 is more than 100 µM.

In the case of `CC1(C)CCc2cc(/C=C3/C(=O)Nc4ccc(Cl)cc43)ccc2O1` [Example 15, 5-Chloro-3-(2,2-dimethyl-chroman-6-ylmethylene)-1,3-dihydroindol-2-one], the IC50 turned out to be 26.5 µM.

For the compound `Cc1c(/C=C2\C(=O)Nc3ccc(C(=O)O)cc32)[nH]c2ccccc12` [Example 156, 3-(3-Methyl-1H-indol-2-ylmethylene)-2-oxo-2,3-dihydro-1H-indole-5-carboxylic acid (piperidine salt)], the IC50 was found to be 8.32 µM.

Turning to `COc1ccc(/C=C2/C(=O)Nc3ccc(Cl)cc32)cc1-c1cccs1` [Example 59, 5-chloro-3-(4-Methoxy-3-thiophen-2-ylbenzylidene)-1,3-dihydroindol-2-one], the IC50 was more than 100 µM.

Regarding `COc1ccc(/C=C2/C(=O)Nc3cc(NC(C)=O)ccc32)cc1-c1cccs1` [Example 31, N-[3-(4-Methoxy-3-thiophen-2-ylbenzylidene)-2-oxo-2,3-dihydro-1H-indol-6-yl]-acetamide], the IC50 is more than 100 µM.

Regarding `CC(C)c1cc(/C=C2/C(=O)Nc3ccc(Cl)cc32)cc(C(C)C)c1OCCN1CCOCC1` [Example 24, 5-chloro-3-[3,5-diisopropyl-4-(2-morpholin-4-ylethoxy)-benzylidene]-1,3-dihydroindol-2-one], the half-inhibitory concentration (IC50) was more than 100 µM.

Consider `COc1cc(C)c(/C=C2/C(=O)Nc3ccc(F)cc32)cc1C(C)C` [Example 30, 5-Fluoro-3-(5-isopropyl-4-methoxy-2-methyl-benzylidene)-1,3-dihydroindol-2-one], for which the concentration for half-maximal inhibition (IC50) was more than 100 µM.

For `CC(=O)Nc1ccc2c(c1)NC(=O)/C2=C/c1ccc(OCCN2CCOCC2)c(-c2cccs2)c1` [Example 40, N-{3-[4-(2-Morpholin-4-ylethoxy)-3-thiophen-2-ylbenzylidene]-2-oxo-2,3-dihydro-1H-indol-6-yl}-acetamide], the IC50 is more than 100 µM.

On to `COc1cc(C)c(/C=C2/C(=O)Nc3ccc(Br)cc32)cc1C(C)C` [Example 36, 5-Bromo-3-(5-isopropyl-4-methoxy-2-methyl-benzylidene)-1,3-dihydroindol-2-one], for which the half-maximal inhibitory concentration (IC50) is more than 100 µM.

For `Cc1cc(CCC(=O)O)c(/C=C2\C(=O)Nc3cc(-c4ccc(F)cc4)ccc32)[nH]1` [Example 107, 3-{2-[6-(4-Fluorophenyl)-2-oxo-1,2-dihydroindol-3-ylidenemethyl]-5-methyl-1H-pyrrol-3-yl}propionic acid], the 50% inhibitory concentration (IC50) was less than 0.78 µM.

Regarding `COc1ccc(/C=C2/C(=O)Nc3ccc(F)cc32)cc1C1CCCCC1` [Example 43, 3-(3-Cyclohexyl-4-methoxybenzylidene)-5-fluoro-1,3-dihydroindol-2-one], the IC50 turned out to be 11 µM.

For the compound `COc1cc(C)c(C=C2C(=O)Nc3cc(NC(C)=O)ccc32)cc1C(C)C` [Example 27, N-[3-(5-Isopropyl-4-methoxy-2-methyl-benzylidene)-2-oxo-2,3-dihydro-1H-indol-6-yl]-acetamide], the half-inhibitory concentration (IC50) was more than 100 µM.

For `COc1cc(C=C2C(=O)Nc3ccccc32)c(-c2ccccc2OC)cc1OC` [Example 49, 3-(4,5,2′-Trimethoxybiphenyl-2-ylmethylene)-1,3-dihydroindol-2-one], the IC50 is more than 100 µM.

For the compound `CCOC(=O)c1c(C)[nH]c(/C=C2\C(=O)Nc3cc(-c4ccccc4OC)ccc32)c1CCC(=O)O` [Example 110, 4-(2-Carboxyethyl)-5-[6-(2-methoxyphenyl)-2-oxo-1,2-dihydro-indol-3-ylidenemethyl]-2-methyl-1H-pyrrol-3-yl-carboxylic acid ethyl ester], the IC50 is 3.15 µM.

As to `Cc1cccc2c1/C(=C/c1cc3ccccc3[nH]1)C(=O)N2` [Example 166, 3-(1H-indol-2-ylmethylene)-4-methyl-1,3-dihydro-indol-2-one], the IC50 was more than 100 µM.

In the case of `COc1ccc(/C=C2/C(=O)Nc3ccccc32)cc1-c1ccsc1` [Example 35, 3-(4-Methoxy-3-thiophen-3-ylbenzylidene)-1,3-dihydroindol-2-one], the half-inhibitory concentration (IC50) was more than 100 µM.

On to `CCOC(=O)c1c(C)[nH]c(/C=C2\C(=O)Nc3cc(-c4ccc(F)cc4)ccc32)c1CCC(=O)O` [Example 108, 4-(2-Carboxyethyl)-5-[6-(4-fluorophenyl)-2-oxo-1,2-dihydro-indol-3-ylidenemethyl]-2-methyl-1H-pyrrole-3-carboxylic acid ethyl ester], for which the IC50 worked out at 2.97 µM.

With `Cc1cccc2c1/C(=C/c1ccc3c(c1)CCC(C)(C)O3)C(=O)N2` [Example 41, 3-(2,2-Dimethylchroman-6-ylmethylene)-4-methyl-1,3-dihydroindol-2-one], the IC50 is more than 100 µM.

Regarding `Cc1cc(CCC(=O)O)c(/C=C2\C(=O)Nc3ccc(Cl)cc32)[nH]1` [Example 111, 3-[2-(5-Chloro-2-oxo-1,2-dihydroindol-3-ylidenemethyl)-5-methyl-1H-pyrrol-3-yl]propionic acid], the IC50 is 0.01 µM.

Take `CC1(C)CCc2cc(C=C3C(=O)Nc4ccc(Br)cc43)ccc2O1` (racemic) [Example 34, 5-Bromo-3-(2,2-dimethylchroman-6-ylmethylene)-1,3-dihydroindol-2-one]: the IC50 amounted to 56.7 µM.

Regarding `CC(=O)Nc1ccc2c(c1)NC(=O)/C2=C/c1ccc(OCCN2CCOCC2)c(C(C)(C)C)c1` [Example 55, N-{3-[3-tert-Butyl-4-(2-morpholin-4-ylethoxy)-benzylidene]-2-oxo-2,3-dihydro-1H-indol-6-yl}-acetamide], the half-inhibitory concentration (IC50) is more than 100 µM.

Turning to `COc1ccc(/C=C2/C(=O)Nc3ccc(F)cc32)cc1-c1ccccc1` [Example 37, 5-Fluoro-3-(6-methoxybiphenyl-3-ylmethylene)-1,3-dihydroindol-2-one], the IC50 is more than 100 µM.

As to `CCOc1cccc(-c2cc(OC)c(OC)cc2/C=C2/C(=O)Nc3ccccc32)c1` [Example 58, 3-(3′-Ethoxy-4,5-dimethoxybiphenyl-2-ylmethylene)-1,3-dihydroindol-2-one], the 50% inhibitory concentration (IC50) was more than 100 µM.
